Like-named read-outs stand apart in the source and are kept apart here. Marks after values point to notes of the source that are not given here.
How the values were obtained:
[1] = Visual clarity of surfactant/lipid mixtures in water (Comparative Example 1); assay type: physicochemical
Description: The appropriate quantity of lipid and surfactant was added to water, which was then warmed to approximately 50° C. and stirred until a uniform emulsion was formed. The mixture was then homogenised for 10 minutes. Percentage values specified in this experiment refer to the weight of the component in question as a proportion of the total weight of the composition. Once the mixtures were prepared they were visually examined to determine whether the surfactant component had solubilized the lipid component in the aqueous medium. The clarity of a mixture was categorized as being clear if there was no significant visible opacity to the naked eye, whereas a mixture was categorized as cloudy if there was significant visible disruption to the passage of light.

[2] = Clarity and turbidity of surfactant/active agent mixtures in water (Comparative Example 2); assay type: physicochemical; conditions: surfactant 5% w/w + TECA 0.5% w/w in water, visual
Description: The appropriate quantity of surfactant and active agent was added to water, which was then warmed to approximately 50° C. and stirred. The mixture was then homogenised for 10 minutes. Percentage values specified in this experiment refer to the weight of the component in question as a proportion of the total weight of the composition. Once the mixtures were prepared they were visually examined to determine whether the surfactant component had solubilized the active agent in the aqueous medium. The clarity of a mixture was categorized as being clear if there was no significant visible opacity to the naked eye, whereas a mixture was categorized as cloudy if there was significant visible disruption to the passage of light. For a quantitative analysis of the clarity of aqueous solutions of surfactant and active, certain samples were examined using a turbidity meter ([…] , from Hach-Lange). The turbidity meter was calibrated prior to use, with two known standards (0 and 40 FNU).

[3] = Turbidity of surfactant/lipid compositions, formation of macromolecular complexes (Example 1); assay type: physicochemical; conditions: 2.5% surfactant, 1% 90H lipid, ca. 0.01% S LPC co-surfactant (as 0.05% SL 80-3) in water, room temperature
Description: Briefly, to the appropriate volume of warm water (ca. 60° C.), SL 80-3 was added. […] 90H was then added gradually, with heating and stirring maintained throughout and for a further 45 minutes after completion.
After mixing the solution was stirred and heated to around 60-70° C.
The required quantity of warm lipid emulsion was slowly added to the warm surfactant solution while stirring with the temperature maintained.

[4] = rough average of manufacturer and literature values; cited from earlier work
[5] = Appearance of aqueous gel preparations (Examples 10 and 11); assay type: physicochemical; conditions: Example 11: TECA and VC-P solutions mixed with Blanose 7HF gel with Nipaguard DMDMH
Description: (§1) A stock solution of surfactant, co-surfactant, lipid and active agent was initially prepared in water at double the desired final concentration. Briefly, co-surfactant, lipid and active agent were dissolved in ethanol, while heating (approximately 30° C.) and stirring. Surfactant material was then added whilst maintaining heat and stir conditions. Ethanol was subsequently removed via rotary evaporation and the resulting dry material was then resolubilized in water with warming (ca. 50° C.) at double the desired final concentration.
Nipaguard PDU was dissolved into water while heating (approximately 30° C.) and stirring. Blanose® 7HF was then added until a uniform gel was formed.
Solution A and Solution B were then mixed in equal volumes to produce the final preparation.
as §1, with “prepared.” for “prepared in water at double the desired final concentration.”, “four times” for “double”
A stock solution of surfactant, co-surfactant, lipid and active agent was initially prepared. […]

[6] = Solubilisation of piroctone olamine in compositions of the invention (Example 7); assay type: physicochemical; conditions: dried material (15 g Brij 35P, 6 g 90H, 0.3 g SL 80-3, 4.8 g active) re-solubilized into 50 g of water
Description: Macromolecular assemblies of the present invention which incorporated piroctone olamine were prepared in isopropanol using a method analogous to that described in Example 6 (in that case using ethanol solvent), before being dried by rotary evaporation. The dried material having the composition: • Surfactant—15 g Brij 35P • Lipid—6 g 90H • Co-surfactant (indirectly)—0.3 g SL 80-3 • Active agent—4.8 g piroctone olamine • i.e. total piroctone olamine by weight=18.4%
The dried material was then re-solubilized into 50 g of water to provide a concentrated solution (i.e. using the present invention enables aqueous formulations containing at least 9.6% piroctone olamine by weight to be prepared).

[7] = cited from earlier work
[8] = Reconstitution of dried (freeze-dried or rotary evaporated) formulations in water; assay type: physicochemical; conditions: rotary evaporated Brij 35P/90H/SL 80-3/progesterone composition
Description: Of those samples which were dried, all were easily reconstituted into water at the same concentration as prior to drying.
Reconstitution of the freeze-dried composition containing Brij 35P (2.5%), 90H (1%), SL 80-3 (0.05%) and TECA (0.8%), indicated in the table above by #, was successful at a concentration of 32.4% by dry weight (i.e. an overall concentration of 6% active in the final aqueous solution).
The rotary evaporated composition containing Brij 35P (2.5%), 90H (1%), SL 80-3 (0.05%) and progesterone (0.1%), indicated in the table above by t, was reconstituted in water to provide a clear and colourless solution with a progesterone concentration of 0.25% (i.e. 2500 ug/ml, 2.7% progesterone by dry weight).

[9] = Surf. Brij 35P 2.5%, lipid 90H 1.0%, co-surf. S LPC ca. 0.01% (as SL 80-3 0.05%), active agent 0.10%
Description: A stock emulsion of co-surfactant, lipid and active agent was prepared at double the desired final concentration. Co-surfactant was dissolved in water while heating (approximately 60° C.) and stirring, with the conditions maintained for approximately 15 further minutes before the mixture was homogenised (approximately 1 minute at 13,000 RPM, POLYTRON PT 3100 Homogeniser). Lipid was then added gradually, followed by continued stirring and heating until a uniform emulsion is formed. After approximately 45 minutes the mixture was then homogenised (approximately 3 minute at 15,000 RPM). The temperature was then brought to around 50° C. before the active component was added slowly under stirring until a uniform emulsion was present. The final emulsion was then homogenised (approximately 1 minute, ULTRA-TURRAX®-Janke & Kunkel).
A stock solution of surfactant was prepared at double (i.e. 5%) the desired final concentration of 2.5%, by mixing of the surfactant with the appropriate volume of water.
Macromolecular complexes incorporating active agents were then prepared by the dropwise addition of the warm lipid containing emulsion to an equal volume of surfactant solution while stirring and heating 50° C.
Samples were then allowed to cool to room temperature before being analyzed.
For a quantitative analysis of the clarity of aqueous solutions of surfactant, lipid and active, samples were examined using a turbidity meter (Nephla, from Hach-Lange). The turbidity meter was calibrated prior to use, with two known standards (0 and 40 FNU).

[10] = cited from earlier work; remark: listed apart in the source

Question: Which Clarity ([1]; surfactant 2.5% w/w + lipid 90H 1.0% w/w in water) does the source give for `CCCCCCCCCCCCOS(=O)(=O)[O-].[Na+]` [SDS, Sodium dodecyl sulphate] here?
Answer: The Clarity was “Cloudy”.

Question: And the Clarity ([1]; surfactant 5.0% w/w + lipid 90H 1.0% w/w in water)?
Answer: Its Clarity is “Clear”.

Question: And the Clarity [2]?
Answer: The Clarity was “Cloudy”.

Question: What about the “Average Turbidity” value [3] of the same compound?
Answer: The value was 26.2 FNU.

Question: And the “Average HLB” value [4]?
Answer: Its value is 40.

Question: Which “Appearance of cosmetic gel preparation” value [5] does the source give for vitamin C dipalmitate [VC-P] here?
Answer: The value was “clear and colourless aqueous gel”.

Question: With `Cc1cc(CC(C)CC(C)(C)C)n(O)c(=O)c1.NCCO` (stereo not shown) [piroctone olamine] as the compound, how does the “Active agent content of concentrated aqueous formulation” value [6] read?
Answer: The value was “at least 9.6 % by weight”.

Question: And the “Aqueous solubility with surfactant” value ([7]; 15% SDS, pH 7, room temperature)?
Answer: The value was “approximately 2.8%”.

Question: And the Solubility ([7]; in 1,2-Propyleneglycol)?
Answer: Its Solubility is 16.0%.

Question: What about the Solubility ([7]; in Ethanol) of the same compound?
Answer: Its Solubility is 10.0%.

Question: What about the Solubility ([7]; in Glycerol) of the same compound?
Answer: The Solubility was 1.7%.

Question: What about the Solubility ([7]; in Isopropanol) of the same compound?
Answer: The Solubility was 5.0%.

Question: And the Solubility ([7]; in PEG-400)?
Answer: The Solubility was 1.9%.

Question: And the Solubility ([7]; in Water)?
Answer: Its Solubility is 0.05%.

Question: For `CC(=O)[C@H]1CC[C@H]2[C@@H]3CCC4=CC(=O)CC[C@]4(C)[C@H]3CC[C@]12C` [progesterone], which “Active agent by dry weight” value [8] is on record?
Answer: Its value is 2.7%.

Question: And the “Turbidity (FNU)” value [9]?
Answer: The value was 34.20† FNU.

Question: What about the “Active loading by dry weight” value ([10]; WO00/50007, 1.76 mg/ml using 198 mg of carrier) of the same compound?
Answer: The value was “approximately 1.0%”.

Question: And the “Maximum concentration in aqueous dispersion” value ([10]; WO00/50007, using 198 mg of carrier)?
Answer: The value was 1.76 mg/mL.

Question: And the “Maximum concentration in aqueous dispersion” value ([10]; delivery system of WO00/50007 (Example 47), higher carrier concentration)?
Answer: Its value is 1.76 mg/mL.

— patent US20100062067A1, “COMPOSITIONS COMPRISING MACROMOLECULAR ASSEMBLIES OF LIPID AND SURFACTANT” (MALVERN COSMECEUTICS LIMITED, priority 2006, published 2010)
